From US6914045B2, “Glycopeptide antibiotics” (Wyeth Holdings Corporation, priority 2001, dated 2005)
Converted amounts (≈) assume the structure as drawn.

How the values were obtained:
Assay in all cases: in vitro antibacterial evaluation, MIC by broth dilution
Assay type in all cases: cell-based
Enterococcus sp. = conditions: broth dilution, 18 hours at 35° C.; for MIC Enterococcus faecalis (GC 2242): strain GC 2242; for MIC Enterococcus faecalis (GC 2691): strain GC 2691; for MIC Enterococcus faecalis (GC 3059): strain GC 3059
Procedure: (§1) Methods for in vitro Antibacterial Evaluation (Table 1)
(§2) The minimum inhibitory concentration (MIC), the lowest concentration of the antibiotic which inhibits growth of the test organism, is determined by the broth dilution method using Muller-Hinton II […] (Baltimore Biological Laboratories) following the recommendations of the National Committee for Clinical Laboratory Standards [Methods for dilution antimicrobial susceptibility tests for bacteria that grow aerobically, approved standard M7-A2, National Committee for Clinical Laboratory Standards, Villanova, Pa.].
(§3) An inoculum level of 5×10^5 CFU/mL, and a range of antibiotic concentrations (64-0.06 μg/mL) is used. […] The test organisms include a spectrum of Gram-positive bacteria comprised of Staphylococcus sp., Streptococcus sp. and Enterococcus sp. These organisms include recent clinical isolates that are resistant to methicillin, penicillin and/or vancomycin.

Staphylococcus sp. = conditions: broth dilution, 18 hours at 35° C.; for MIC Staphylococcus aureus (ATCC 29213): strain ATCC 29213; for MIC Staphylococcus aureus (GC 1131): strain GC 1131; for MIC Staphylococcus aureus (GC 3051): strain GC 3051; for MIC Staphylococcus aureus (GC 3053): strain GC 3053; for MIC Staphylococcus aureus (GC 4541): strain GC 4541; for MIC Staphylococcus aureus (GC 4542): strain GC 4542; for MIC Staphylococcus aureus-SMITH (GC 4543): strain GC 4543; for MIC Staphylococcus aureus (GC 4544): strain GC 4544; for MIC Staphylococcus aureus (GC 4545): strain GC 4545; for MIC Staphylococcus haemolyticus (GC 4546): strain GC 4546; for MIC Coagulase Negative Staphylococcus (GC 4547): strain GC 4547; for MIC Coagulase Negative Staphylococcus (GC 4548): strain GC 4548; for MIC Coagulase Negative Staphylococcus (GC 4549): strain GC 4549; for MIC Coagulase Negative Staphylococcus (GC 4551): strain GC 4551
Procedure: as §1, §2, §3

Streptococcus sp. = conditions: broth dilution, 18 hours at 35° C.; for MIC Streptococcus pneumoniae (ATCC 6301): strain ATCC 6301; for MIC Streptococcus pneumoniae (GC 1894): strain GC 1894; for MIC Streptococcus pyogenes (GC 4563): strain GC 4563; for MIC Streptococcus agalactiae (GC 4564): strain GC 4564; for MIC Streptococcus pneumoniae (GC 4565): strain GC 4565
Procedure: as §1, §2, §3

Escherichia coli = conditions: broth dilution, 18 hours at 35° C.; for MIC Escherichia coli (ATCC 25922): strain ATCC 25922; for MIC Escherichia coli (GC 4559): strain GC 4559; for MIC Escherichia coli (GC 4560): strain GC 4560
Method in brief: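 Broth dilution MIC per NCCLS M7-A2 in Mueller-Hinton II medium, inoculum 5×10^5 CFU/mL, antibiotic range 64-0.06 μg/mL. MIC taken as lowest concentration inhibiting growth.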

[1] = Enterococcus faecalis (ATCC 29212)
[2] = Enterococcus faecalis (GC 4552)
[3] = Enterococcus faecalis (GC 4553)
[4] = Enterococcus faecalis (GC 4554)
[5] = Enterococcus faecalis (GC 6189)

CC(C1CCCCC1)C1NC(=O)CNC(=O)C(CO)NC(=O)C(C(O)C2CNC(=N)N2C2OC(CO)C(O)C(O)C2O)NC(=O)C(C(O)C2CNC(=N)N2)NC(=O)C(CC2CCC(OC3OC(CO)C(OC4OC(CO)C(O)C(O)C4O)C(O)C3O)CC2)NC1=O (centres unmarked) [Example 53a, Cyclo[3-[4-[(4-O-hexopyranosylhexopyranosyl)oxy]cyclohexyl]alanyl-3-(2-iminoimidazolidin-4-yl)seryl-3-(3-hexopyranosyl-2-iminoimidazolidin-4-yl)serylserylglycyl-3-cyclohexyl-2-aminobutanoyl]]
MIC Enterococcus avium (GC 4558) (Enterococcus sp.; Enterococcus avium (GC 4558)): >128 µg/mL | MIC Enterococcus faecalis (ATCC 29212) (Enterococcus sp.; [1]): >128 µg/mL | MIC Enterococcus faecalis (GC 4552) (Enterococcus sp.; [2]): >128 µg/mL | MIC Enterococcus faecalis (GC 4553) (Enterococcus sp.; [3]): >128 µg/mL | MIC Enterococcus faecalis (GC 4554) (Enterococcus sp.; [4]): >128 µg/mL | MIC Enterococcus faecalis (GC 6189) (Enterococcus sp.; [5]): >128 µg/mL | MIC Enterococcus faecium (GC 2243) (Enterococcus sp.; Enterococcus faecium (GC 2243)): >128 µg/mL | MIC Enterococcus faecium (GC 4556) (Enterococcus sp.; Enterococcus faecium (GC 4556)): >128 µg/mL | MIC Enterococcus faecium (GC 4557) (Enterococcus sp.; Enterococcus faecium (GC 4557)): >128 µg/mL | MIC Enterococcus faecalis (ATCC 29212) (Enterococcus sp.; strain ATCC 29212): >128 µg/mL | MIC Enterococcus faecalis (GC 2242) (Enterococcus sp.): >128 µg/mL | MIC Enterococcus faecium (GC 2243) (Enterococcus sp.; strain GC 2243): >128 µg/mL | MIC Enterococcus faecalis (GC 2691) (Enterococcus sp.): >128 µg/mL | MIC Enterococcus faecalis (GC 3059) (Enterococcus sp.): >128 µg/mL | MIC Enterococcus faecalis (GC 4552) (Enterococcus sp.; strain GC 4552): >128 µg/mL | MIC Enterococcus faecalis (GC 4553) (Enterococcus sp.; strain GC 4553): >128 µg/mL | MIC Enterococcus faecalis (GC 4554) (Enterococcus sp.; strain GC 4554): >128 µg/mL | MIC Enterococcus faecium (GC 4556) (Enterococcus sp.; strain GC 4556): >128 µg/mL | MIC Enterococcus faecium (GC 4557) (Enterococcus sp.; strain GC 4557): >128 µg/mL | MIC Enterococcus avium (GC 4558) (Enterococcus sp.; strain GC 4558): >128 µg/mL | MIC Enterococcus faecalis (GC 6189) (Enterococcus sp.; strain GC 6189): >128 µg/mL | MIC Staphylococcus aureus (ATCC 29213) (Staphylococcus sp.): >128 µg/mL | MIC Staphylococcus aureus (GC 1131) (Staphylococcus sp.): >128 µg/mL | MIC Staphylococcus aureus (GC 3051) (Staphylococcus sp.): >128 µg/mL | MIC Staphylococcus aureus (GC 3053) (Staphylococcus sp.): >128 µg/mL | MIC Staphylococcus aureus (GC 4541) (Staphylococcus sp.): >128 µg/mL | MIC Staphylococcus aureus (GC 4542) (Staphylococcus sp.): >128 µg/mL | MIC Staphylococcus aureus-SMITH (GC 4543) (Staphylococcus sp.): >128 µg/mL | MIC Staphylococcus aureus (GC 4544) (Staphylococcus sp.): >128 µg/mL | MIC Staphylococcus aureus (GC 4545) (Staphylococcus sp.): >128 µg/mL | MIC Staphylococcus haemolyticus (GC 4546) (Staphylococcus sp.): >128 µg/mL | MIC Coagulase Negative Staphylococcus (GC 4547) (Staphylococcus sp.): >128 µg/mL | MIC Coagulase Negative Staphylococcus (GC 4548) (Staphylococcus sp.): >128 µg/mL | MIC Coagulase Negative Staphylococcus (GC 4549) (Staphylococcus sp.): >128 µg/mL | MIC Coagulase Negative Staphylococcus (GC 4551) (Staphylococcus sp.): >128 µg/mL | MIC Streptococcus pneumoniae (ATCC 6301) (Streptococcus sp.): 64 µg/mL (≈ 49 µM) | MIC Streptococcus pneumoniae (GC 1894) (Streptococcus sp.): 32 µg/mL (≈ 24.5 µM) | MIC Streptococcus pyogenes (GC 4563) (Streptococcus sp.): 64 µg/mL (≈ 49 µM) | MIC Streptococcus agalactiae (GC 4564) (Streptococcus sp.): 64 µg/mL (≈ 49 µM) | MIC Streptococcus pneumoniae (GC 4565) (Streptococcus sp.): 64 µg/mL (≈ 49 µM) | MIC Escherichia coli (ATCC 25922) (Escherichia coli): >128 µg/mL | MIC Escherichia coli (GC 4559) (Escherichia coli): >128 µg/mL | MIC Escherichia coli (GC 4560) (Escherichia coli): >128 µg/mL

CC(C1CCCCC1)C1NC(=O)CNC(=O)C(CO)NC(=O)C(C(O)C2CNC(=N)N2C2OC(CO)C(O)C(O)C2O)NC(=O)C(C(O)C2CNC(=N)N2)NC(=O)C(C[C@H]2CC[C@@H](O)CC2)NC1=O (stereo partly drawn) [Example 54, Cyclo[3-(syn-4-hydroxycyclohexyl)alanyl-3-(2-ininoimidazolidin-4-yl)seryl-3-(3-hexopyranosyl-2-iminoimidazolidin-4-yl)serylserylglycyl-3-cyclohexyl-2-aminobutanoyl]]
MIC Enterococcus avium (GC 4558) (Enterococcus sp.; Enterococcus avium (GC 4558)): 128 µg/mL (≈ 130 µM) | MIC Enterococcus faecalis (ATCC 29212) (Enterococcus sp.; [1]): >128 µg/mL | MIC Enterococcus faecalis (GC 4552) (Enterococcus sp.; [2]): >128 µg/mL | MIC Enterococcus faecalis (GC 4553) (Enterococcus sp.; [3]): >128 µg/mL | MIC Enterococcus faecalis (GC 4554) (Enterococcus sp.; [4]): >128 µg/mL | MIC Enterococcus faecalis (GC 6189) (Enterococcus sp.; [5]): >128 µg/mL | MIC Enterococcus faecium (GC 2243) (Enterococcus sp.; Enterococcus faecium (GC 2243)): >128 µg/mL | MIC Enterococcus faecium (GC 4556) (Enterococcus sp.; Enterococcus faecium (GC 4556)): >128 µg/mL | MIC Enterococcus faecium (GC 4557) (Enterococcus sp.; Enterococcus faecium (GC 4557)): 128 µg/mL (≈ 130 µM) | MIC Enterococcus faecalis (ATCC 29212) (Enterococcus sp.; strain ATCC 29212): >128 µg/mL | MIC Enterococcus faecalis (GC 2242) (Enterococcus sp.): >128 µg/mL | MIC Enterococcus faecium (GC 2243) (Enterococcus sp.; strain GC 2243): >128 µg/mL | MIC Enterococcus faecalis (GC 2691) (Enterococcus sp.): >128 µg/mL | MIC Enterococcus faecalis (GC 3059) (Enterococcus sp.): >128 µg/mL | MIC Enterococcus faecalis (GC 4552) (Enterococcus sp.; strain GC 4552): >128 µg/mL | MIC Enterococcus faecalis (GC 4553) (Enterococcus sp.; strain GC 4553): >128 µg/mL | MIC Enterococcus faecalis (GC 4554) (Enterococcus sp.; strain GC 4554): >128 µg/mL | MIC Enterococcus faecium (GC 4556) (Enterococcus sp.; strain GC 4556): >128 µg/mL | MIC Enterococcus faecium (GC 4557) (Enterococcus sp.; strain GC 4557): 128 µg/mL (≈ 130 µM) | MIC Enterococcus avium (GC 4558) (Enterococcus sp.; strain GC 4558): 128 µg/mL (≈ 130 µM) | MIC Enterococcus faecalis (GC 6189) (Enterococcus sp.; strain GC 6189): >128 µg/mL | MIC Staphylococcus aureus (ATCC 29213) (Staphylococcus sp.): >128 µg/mL | MIC Staphylococcus aureus (GC 1131) (Staphylococcus sp.): >128 µg/mL | MIC Staphylococcus aureus (GC 3051) (Staphylococcus sp.): >128 µg/mL | MIC Staphylococcus aureus (GC 3053) (Staphylococcus sp.): >128 µg/mL | MIC Staphylococcus aureus (GC 4541) (Staphylococcus sp.): >128 µg/mL | MIC Staphylococcus aureus (GC 4542) (Staphylococcus sp.): >128 µg/mL | MIC Staphylococcus aureus-SMITH (GC 4543) (Staphylococcus sp.): >128 µg/mL | MIC Staphylococcus aureus (GC 4544) (Staphylococcus sp.): >128 µg/mL | MIC Staphylococcus aureus (GC 4545) (Staphylococcus sp.): >128 µg/mL | MIC Staphylococcus haemolyticus (GC 4546) (Staphylococcus sp.): >128 µg/mL | MIC Coagulase Negative Staphylococcus (GC 4547) (Staphylococcus sp.): >128 µg/mL | MIC Coagulase Negative Staphylococcus (GC 4548) (Staphylococcus sp.): >128 µg/mL | MIC Coagulase Negative Staphylococcus (GC 4549) (Staphylococcus sp.): >128 µg/mL | MIC Coagulase Negative Staphylococcus (GC 4551) (Staphylococcus sp.): >128 µg/mL | MIC Streptococcus pneumoniae (ATCC 6301) (Streptococcus sp.): >128 µg/mL | MIC Streptococcus pneumoniae (GC 1894) (Streptococcus sp.): 128 µg/mL (≈ 130 µM) | MIC Streptococcus pyogenes (GC 4563) (Streptococcus sp.): >128 µg/mL | MIC Streptococcus agalactiae (GC 4564) (Streptococcus sp.): >128 µg/mL | MIC Streptococcus pneumoniae (GC 4565) (Streptococcus sp.): >128 µg/mL | MIC Escherichia coli (ATCC 25922) (Escherichia coli): >128 µg/mL | MIC Escherichia coli (GC 4559) (Escherichia coli): >128 µg/mL | MIC Escherichia coli (GC 4560) (Escherichia coli): >128 µg/mL
